Reference: ChEMBL document CHEMBL3585344, “Thiazole-based aminopyrimidines and N-phenylpyrazolines as potent antimicrobial agents: synthesis and biological evaluation” (2014)
Values after ≈ are worked out from the molar mass of the structure shown.

Columns and labels:
[1] = tested on: Escherichia coli; assay: Antibacterial activity against Escherichia coli ATCC 35210 after 24 hrs by microdilution method; format: functional; conditions: ATCC 35210, 24 h
[2] = tested on: Trichoderma viride; assay: Antifungal activity against Trichoderma viride IAM 5061 after 72 hrs by microdilution method; format: functional; conditions: IAM 5061, 72 h
[3] = tested on: Candida albicans; assay: Antifungal activity against Candida albicans ATCC 10231 isolated from human after 72 hrs by microdilution method; format: functional; conditions: ATCC 10231, 72 h
[4] = tested on: Enterobacter cloacae; assay: Bactericidal activity against Enterobacter cloacae ATCC 35030 isolated from human after 72 hrs by microdilution method; format: functional
[5] = tested on: Pseudomonas aeruginosa; assay: Bactericidal activity against Pseudomonas aeruginosa ATCC 27853 after 72 hrs by microdilution method; format: functional
[6] = tested on: Escherichia coli; assay: Bactericidal activity against Escherichia coli ATCC 35210 after 72 hrs by microdilution method; format: functional
[7] = tested on: Aspergillus niger; assay: Antifungal activity against Aspergillus niger ATCC 6275 after 72 hrs by microdilution method; format: functional; conditions: ATCC 6275, 72 h
[8] = tested on: Talaromyces funiculosus; assay: Fungicidal activity against Penicillium funiculosum ATCC 36839 after 72 hrs by microdilution method; format: functional
[9] = tested on: Bacillus cereus; assay: Antibacterial activity against Bacillus cereus clinical isolate after 24 hrs by microdilution method; format: functional
[10] = tested on: Candida albicans; assay: Fungicidal activity against Candida albicans ATCC 10231 isolated from human after 72 hrs by microdilution method; format: functional
[11] = tested on: Bacillus cereus; assay: Bactericidal activity against Bacillus cereus clinical isolate after 72 hrs by microdilution method; format: functional
[12] = tested on: Aspergillus versicolor; assay: Fungicidal activity against Aspergillus versicolor ATCC 11730 after 72 hrs by microdilution method; format: functional
[13] = tested on: Enterobacter cloacae; assay: Antibacterial activity against Enterobacter cloacae ATCC 35030 isolated from human after 24 hrs by microdilution method; format: functional; conditions: ATCC 35030, 24 h
[14] = tested on: Listeria monocytogenes; assay: Bactericidal activity against Listeria monocytogenes NCTC 7973 after 72 hrs by microdilution method; format: functional
[15] = tested on: Salmonella typhimurium; assay: Antibacterial activity against Salmonella typhimurium ATCC 13311 after 24 hrs by microdilution method; format: functional, Salmonella enterica subsp. enterica serovar Typhimurium; conditions: Salmonella enterica, ATCC 13311, 24 h
[16] = tested on: Aspergillus versicolor; assay: Antifungal activity against Aspergillus versicolor ATCC 11730 after 72 hrs by microdilution method; format: functional; conditions: ATCC 11730, 72 h
[17] = tested on: Talaromyces funiculosus; assay: Antifungal activity against Penicillium funiculosum ATCC 36839 after 72 hrs by microdilution method; format: functional; conditions: ATCC 36839, 72 h
[18] = tested on: Listeria monocytogenes; assay: Antibacterial activity against Listeria monocytogenes NCTC 7973 after 24 hrs by microdilution method; format: functional; conditions: NCTC 7973, 24 h
[19] = tested on: Penicillium ochrochloron; assay: Antifungal activity against Penicillium ochrochloron ATCC 9112 after 72 hrs by microdilution method; format: functional; conditions: ATCC 9112, 72 h
[20] = tested on: Aspergillus ochraceus; assay: Fungicidal activity against Aspergillus ochraceus ATCC 12066 after 72 hrs by microdilution method; format: functional
[21] = tested on: Penicillium ochrochloron; assay: Fungicidal activity against Penicillium ochrochloron ATCC 9112 after 72 hrs by microdilution method; format: functional
[22] = tested on: Staphylococcus aureus; assay: Antibacterial activity against Staphylococcus aureus ATCC 6538 after 24 hrs by microdilution method; format: functional; conditions: ATCC 6538, 24 h
[23] = tested on: Aspergillus ochraceus; assay: Antifungal activity against Aspergillus ochraceus ATCC 12066 after 72 hrs by microdilution method; format: functional; conditions: ATCC 12066, 72 h
[24] = tested on: Salmonella typhimurium; assay: Bactericidal activity against Salmonella typhimurium ATCC 13311 after 72 hrs by microdilution method; format: functional, Salmonella enterica subsp. enterica serovar Typhimurium
[25] = tested on: Aspergillus fumigatus; assay: Fungicidal activity against Aspergillus fumigatus isolated from human after 72 hrs by microdilution method; format: functional
[26] = tested on: Micrococcus flavus; assay: Bactericidal activity against Micrococcus flavus ATCC 10240 after 72 hrs by microdilution method; format: functional
[27] = tested on: Trichoderma viride; assay: Fungicidal activity against Trichoderma viride IAM 5061 after 72 hrs by microdilution method; format: functional
[28] = tested on: Pseudomonas aeruginosa; assay: Antibacterial activity against Pseudomonas aeruginosa ATCC 27853 after 24 hrs by microdilution method; format: functional; conditions: ATCC 27853, 24 h
[29] = tested on: Micrococcus flavus; assay: Antibacterial activity against Micrococcus flavus ATCC 10240 after 24 hrs by microdilution method; format: functional; conditions: ATCC 10240, 24 h
[30] = tested on: Aspergillus fumigatus; assay: Antifungal activity against Aspergillus fumigatus isolated from human after 72 hrs by microdilution method; format: functional
[31] = tested on: Aspergillus niger; assay: Fungicidal activity against Aspergillus niger ATCC 6275 after 72 hrs by microdilution method; format: functional
[32] = tested on: Staphylococcus aureus; assay: Bactericidal activity against Staphylococcus aureus ATCC 6538 after 72 hrs by microdilution method; format: functional

Compound | MIC [1] [µM] | MIC [2] [µM] | MIC [3] [µM] | MBC99.5 [4] [×10⁻² umol/ml] | MBC99.5 [5] [×10⁻² umol/ml] | MBC99.5 [6] [×10⁻² umol/ml] | MIC [7] [µM] | MFC99.5 [8] [×10⁻² umol/ml] | MIC [9] [µM] | MFC99.5 [10] [×10⁻² umol/ml] | MBC99.5 [11] [×10⁻² umol/ml] | MFC99.5 [12] [×10⁻² umol/ml] | MIC [13] [µM] | MBC99.5 [14] [×10⁻² umol/ml] | MIC [15] [µM] | MIC [16] [µM] | MIC [17] [µM] | MIC [18] [µM] | MIC [19] [µM] | MFC99.5 [20] [×10⁻² umol/ml] | other results
Cc1nc(-c2ccccc2)sc1C1=NN(c2ccccc2)C(c2ccccc2)C1 (centres undefined) | 101 (≈ 39.9 µg/mL) | 126 (≈ 49.8 µg/mL) | 253 (≈ 100 µg/mL) | 17.7 | 25.3 | 17.7 | 253 (≈ 100 µg/mL) | 32.2 | 152 (≈ 60.1 µg/mL) | 30.4 | 30.4 | 15.2 | 126 (≈ 49.8 µg/mL) | 10.1 | 202 (≈ 79.9 µg/mL) | 126 (≈ 49.8 µg/mL) | 253 (≈ 100 µg/mL) | 76 (≈ 30.1 µg/mL) | 253 (≈ 100 µg/mL) | 20.2 | MFC99.5 [21]: 32.2 ×10⁻² umol/ml; MIC [22]: 126 µM (≈ 49.8 µg/mL); MIC [23]: 126 µM (≈ 49.8 µg/mL); MBC99.5 [24]: 25.3 ×10⁻² umol/ml; MFC99.5 [25]: 15.2 ×10⁻² umol/ml; MBC99.5 [26]: 20.2 ×10⁻² umol/ml; MFC99.5 [27]: 25.3 ×10⁻² umol/ml; MIC [28]: 152 µM (≈ 60.1 µg/mL); MIC [29]: 126 µM (≈ 49.8 µg/mL); MIC [30]: 126 µM (≈ 49.8 µg/mL); MFC99.5 [31]: 32.2 ×10⁻² umol/ml; MBC99.5 [32]: 20.2 ×10⁻² umol/ml
CNc1nc(C)c(C2=NN(c3ccccc3)C(c3ccc(OC)cc3)C2)s1 (centres undefined) | 185 (≈ 70 µg/mL) | 132 (≈ 50 µg/mL) | 264 (≈ 99.9 µg/mL) | 18.5 | 26.4 | 21.1 | 132 (≈ 50 µg/mL) | 37 | 158 (≈ 59.8 µg/mL) | 37 | 26.4 | 21.1 | 132 (≈ 50 µg/mL) | 10.6 | 185 (≈ 70 µg/mL) | 132 (≈ 50 µg/mL) | 264 (≈ 99.9 µg/mL) | 53 (≈ 20.1 µg/mL) | 264 (≈ 99.9 µg/mL) | 13.2 | MFC99.5 [21]: 37 ×10⁻² umol/ml; MIC [22]: 106 µM (≈ 40.1 µg/mL); MIC [23]: 132 µM (≈ 50 µg/mL); MBC99.5 [24]: 26.4 ×10⁻² umol/ml; MFC99.5 [25]: 37 ×10⁻² umol/ml; MBC99.5 [26]: 15.8 ×10⁻² umol/ml; MFC99.5 [27]: 13.2 ×10⁻² umol/ml; MIC [28]: 158 µM (≈ 59.8 µg/mL); MIC [29]: 106 µM (≈ 40.1 µg/mL); MIC [30]: 264 µM (≈ 99.9 µg/mL); MFC99.5 [31]: 26.4 ×10⁻² umol/ml; MBC99.5 [32]: 15.8 ×10⁻² umol/ml
